According to US20230390287A1, “MODULATORS OF PD-L1/PD-1 INTERACTION AND USES THEREOF” (Ramot at Tel-Aviv University Ltd., priority 2021, published 2023):
pIC50: −log10 of the molar value. “Also recorded” adds a separate entry of the source.

What was measured:
[1] = test system: PD-1/PD-L1 interaction on MDA-MB-231 cells; test: Cell-based PD-1/PD-L1 inhibition (accessible PD-L1 by flow cytometry), MDA-MB-231; set-up: species or system human; details: Homo sapiens, 72 hours
Protocol: (§1) PD-1/PD-L1 Inhibition on Human Melanoma and Breast Cancer Cell Lines:
(§2) Cells (0.1×10^6 cells) were tested for PD-1/PD-L1 inhibition by co-incubation of hit compounds, DMSO (background), BMS-202 (Selleckchem) and anti-human PD-L1 (BioxCell, Clone 29E.2A3) (positive controls) for 72 hours in 2 ml DMEM medium. Non-confluent cell cultures were scraped into single-cell suspension, washed with PBS, and counted. Cells were subsequently stained with PD-1 fluorescent proxy for 30 minutes at 4° C., washed twice and resuspended in FACS buffer. Cells were analyzed using BD LSRFortessa (BD Biosciences) and data analyzed with FlowJo software for Mac (FlowJo, LLC 2013-2016). Mean fluorescence intensity (MFI) was derived from each sample. The PD-1/PD-L1 inhibition in cells was measured by a decrease in MFI relative to background.
The selected cell lines were incubated with the selected compounds to assess compound-binding affinities, and consequently PD-1/PD-L1 inhibition. The levels of remaining accessible PD-L1 in these cells were evaluated by FACS analysis using a fluorescence PD-1 proxy. To understand compound activity, different incubation times (24, 48 and 72 hours) were evaluated on MDA-MB-231 breast cancer cell line.
(§3) The remaining accessible PD-L1 was determined by flow cytometry.

PD-1/PD-L1 interaction = PD-1/PD-L1 interaction (Homo sapiens (Human), UniProt Q9NZQ7); test: HTRF PD-1/PD-L1 binding assay; assay type: biochemical; set-up: key to HTF assay (100 μM): +: positive compounds using 100 μM on HTRF
Chain of PD-1/PD-L1 interaction (Q9NZQ7 19-238): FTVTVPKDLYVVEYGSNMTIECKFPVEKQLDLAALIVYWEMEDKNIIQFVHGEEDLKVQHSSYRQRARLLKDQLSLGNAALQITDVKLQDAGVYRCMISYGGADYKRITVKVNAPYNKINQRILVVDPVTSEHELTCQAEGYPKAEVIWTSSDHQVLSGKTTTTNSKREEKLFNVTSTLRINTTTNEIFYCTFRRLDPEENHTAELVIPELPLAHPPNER

[2] = test system: PD-1/PD-L1 interaction on A375 cells; test: Cell-based PD-1/PD-L1 inhibition (accessible PD-L1 by flow cytometry), A375; set-up: species or system human; details: Homo sapiens, A-375; A375 stimulated with IFN-γ; 72 hours
Protocol: as §1, §2, §3

[3] = test system: patient-derived melanoma (Mel4) spheroids with autologous PBMC; test: 3D patient-derived melanoma spheroid - PBMC co-culture; assay type: cell-based, human; details: vs αPD-L1 and untreated
Protocol: 3D Patient-Derived Tumor Spheroids—Lymphocyte Co-Culture:
After isolation of tumor cells, cells were washed and cultured for up to 3 days. This allowed the isolation of adherent cells that were then scrapped and seeded in Nunclon Sphera 96-well plate (Thermo Fisher Scientific) to create a unique uniform spheroid in each well. Spheroids were ready on day 2-5. Thereafter, spheroids were embedded in reduced growth Matrigel (Corning) with PBMC (1:100) and were left untreated or were treated with the small-molecule inhibitor Compound 69 or αPD-L1, dissolved in the appropriate cell culture medium.
3D co-culture was fixed with 4% paraformaldehyde and blocked by PBS with 2% (m/v) BSA. Thereafter, the samples were incubated with CD8 (MA5-16345—Invitrogen) (1:50) in PBS with 1% (v/v) Tween® 20 for 18 hours at 4° C. Then, 4 μg/ml of secondary antibody (A-11008, Invitrogen) were added, 3D spheroids were stained with Hoechst 33342 (10 μg/ml) for 20 minutes. […] The different z-stacks were merged and analyzed by Fiji-ImageJ.
The ability of PD-1/PD-L1 inhibitors (small-molecule inhibitor Compound 69 and αPD-L1) to promote CD8^+ T-cell infiltration into the tumor site was evaluated using a 3D co-culture system. […] The CD8^+ T-cell infiltration (green) was evaluated after 72 hours of co-culture by confocal microscopy. […]

recombinant human PD-L1 = recombinant human PD-L1 (Homo sapiens (Human), UniProt Q9NZQ7); test: Differential scanning fluorimetry (DSF) thermal denaturation; assay type: binding; details: 100 μM compound, 1% DMSO
Chain of recombinant human PD-L1 (Q9NZQ7 19-238): as above
Protocol: DSF was performed in a C1000 Touch thermal cycler equipped with a CFX96 optical reaction module (Bio Rad). For all fluorescence measurements, samples contained recombinant human PD-L1 (ThermoFisher) at 500 μg/ml in phosphate buffered saline (PBS), pH 7.4, 5% (m/v) Mannitol, 5% (m/v) Trehalose, 0.02% (v/v) Tween® 80, 2.5-fold SYPRO® Orange, 1% (v/v) DMSO (Sigma-Aldrich) and 100 μM of each compound. The PCR plate was sealed with Optical-Quality Sealing Tape (Bio-Rad) and centrifuged at 300 g for 5 minutes. The DSF assay was carried out by increasing the temperature from 20 to 90° C., with a 1 second hold time every 0.2° C. and fluorescence acquisition using the FRET channel, after an initial incubation step of 10 minutes at 20° C. Control experiments in the absence of DMSO and/or compounds were routinely performed in each microplate.
Data were processed using CFX Manager Software V3.0 (Bio-Rad) and the GraphPad Prism 7. Temperature scan curves were fitted to a dose-response sigmoid function (Boltzmann equation) and the melting temperature (Tm values) were obtained from the midpoint of the transition. Normalization of the RFU was also performed to prevent distraction due to different maximum and minimum values upon compounds treatment. The RFU values from different data sets were converted to a common scale 0-1, where 0 represents the fluorescence of the native protein and 1 the fluorescence of the denatured protein. To monitor the binding properties towards each compound, DSF assays were run in the absence and presence of 100 μM compounds using 1% (v/v) DMSO as vehicle control.
To test this hypothesis, the melting temperature (Tm) of the PD-L1 was determined in thermal denaturation assays by differential scanning fluorimetry (DSF) and checked for a shift in the proteins' Tm (ΔTm) in the presence of the PD-L1 inhibitor candidates. The extent of temperature shift is proportional to the compounds' stabilizing effect and thereby used to infer inhibitors' affinity.

CCCCCN(CCCCC)C(C)C(=O)c1cc(C)c2ccc3cc(C(C)C)ccc3c2c1.Cl (stereo not drawn) [Compound 69]
pIC50 [1]: 6.00 | pIC50 (PD-1/PD-L1 interaction; HTRF dose-response starting from 100 μM): 6.71 | pIC50 (PD-1/PD-L1 interaction; Table A, HTRF dose-response, NA = Not applicable (No dose-response effect)): 6.71 | pIC50 (PD-1/PD-L1 interaction; Table B, HTRF dose-response, NA = no dose-response effect): 6.71 | HTF assay (100 μM) (PD-1/PD-L1 interaction; compounds at 100 μM, hits defined as at least 50% inhibition of PD-1/PD-L1 interaction): + | pIC50 [2]: 6.00 | CD8+ T cell infiltration within the tumor spheroid ([3]; 72 hours of co-culture): higher CD8^+ T cell infiltration | sprouting of patient-derived melanoma cells ([3]; Mel4 spheroids): inhibited the melanoma cells sprouting; also recorded: strongly inhibited the sprouting | thermal shift / stabilization of PD-L1 (recombinant human PD-L1): stabilization of PD-L1
